Tests used:
[1] = test system: carrageenan-induced rat paw edema; experiment: Carrageenan-induced rat paw edema model; format: in vivo; conditions: for Rat Paw Thickness: mean ± SD; for inhibition in vivo at 2.5 mg/kg / inhibition in vivo at 5 mg/kg / inhibition in vivo at 10 mg/kg: Rattus norvegicus
Method: The Carrageenan-induced rat paw edema model was used to assess the anti-inflammatory potential of novel compounds 8–14. Induction of inflammation was performed in all animals by intraplantar injection of […] 0.5% carrageenan saline into the left hind paw.
Animals (n = 200) were randomly divided into the following groups: control groups, that received either 1% DMSO or naproxen, and experimental groups, that received the novel compounds 8–14.
Control groups included DMSO and naproxen groups. Rats belonging to the DMSO group received 1% DMSO in the same volume as the compounds 8–14, 60 min before carrageenan injection. Moreover, naproxen groups included rats that were subjected to naproxen treatment in three doses: 2.5 mg/kg, 5 mg/kg, and 10 mg/kg. Naproxen was applied in the same manner as 1% DMSO.
Experimental groups included rats that were treated with compounds 8–14 and they were divided into three subgroups depending on the applied dose: 2.5 mg/kg, 5 mg/kg, and 10 mg/kg. The examined compounds were dissolved in 1% DMSO prior to treatment and applied to rats 60 min before inducing inflammation, i.e., before carrageenan injection. Doses of naproxen and investigated compounds were defined based on our previously published research.
In order to quantify the anti-inflammatory effects of the tested compounds, left paw thickness was measured at specific time points: prior to inflammation induction (moment 0) and 1, 2, 3, and 4 h (moments 1, 2, 3, and 4) following carrageenan injection. Tissue thickness was measured in the middle of the rat paw using a Digital Vernier caliper (Aerospace, China). The percentage of inhibition of paw edema after treatment with different agents was calculated according to the formula, Equation (2):% Inhibition = 100 × [1 − (Yt/Yc)](2) where Yt = average increase in paw thickness in the treated group of rats between two measurement moments, and Yc = average increase in paw thickness in the untreated group of rats between two measurement moments.

MDA-MB-231 = experiment: MTT cytotoxicity assay, MDA-MB-231; format: cell-based, human; conditions: for IC50: mean ± SD
Method: (§1) Three cancer cell lines (MDA-MB-231, HCT116 and HeLa; i.e., human breast cancer cells, human colorectal cancer cells, and human cervical cancer cells, respectively), and one non-malignant fibroblast MRC-5 cell line (control) were used in this study. The American Type Cell Collection (ATCC, Manassas, VA, USA) provided all examined cell lines. The cells were grown in a complete medium made up of high-glucose DMEM media supplemented with 10% fetal bovine serum and […] L-glutamine (both from Sigma-Aldrich, USA). The cells were cultured in 25 cc flasks (Thermo Fischer Scientific, Waltham, MA, USA) at 37 °C with 100% humidity in a 5% CO2 atmosphere.
(§2) The MTT test was used to assess the cytotoxicity of compounds 1–14 [44]. The cytotoxicity of naproxen was also investigated due to its clinical use and structural similarity. Throughout the exponential development period, cells were taken from culture flasks and counted, and 5 × 10^3 cells/well were planted into 96-well culture plates. Following that, the cell lines were treated with varying doses of the investigated chemicals (1–14), naproxen ([…]), and fresh complete media as a control. All evaluated cells were incubated for 24, 48, and 72 h at 37 °C in an environment containing 5% CO2 and 100% humidity. Following incubation, each well’s culture media was taken out, each well received an addition of MTT solution at a final concentration of 0.5 mg/mL, and the cells were left to incubate for an additional four hours. The MTT solution was then withdrawn carefully, and the formazan crystals were dissolved in DMSO. After shaking the plates for 10 min, absorbance at 595 nm was measured using a multiplate reader (Zenyth 3100, Anthos Labtec Instruments, Salzburg, Austria). All concentrations of the tested compounds were performed in three separate wells of the microtiter plates and in three separate experiments. The results were reported as a ratio to the control value, untreated cells. IC50 values were also determined using Microsoft Office Excel 2021. The percentage of viable cells was estimated by dividing the readout absorbance value in the wells containing treated cells by the average absorbance value measured in the wells containing untreated cells, and multiplying the result by 100 [44]. % of the viable cells = ((absorbance of treated cell-absorbance of blank)/(absorbance of untreated cell-absorbance of blank)) × 100(3)

HeLa = experiment: MTT cytotoxicity assay, HeLa; format: cell-based, human; conditions: for IC50: mean ± SD
Method: as §1, §2

[2] = 2.5 mg/kg, 1 h after carrageenan
[3] = 2.5 mg/kg, 2 h after carrageenan
[4] = 2.5 mg/kg, 3 h after carrageenan
[5] = 2.5 mg/kg, 4 h after carrageenan
[6] = 5.0 mg/kg, 1 h after carrageenan
[7] = 5.0 mg/kg, 2 h after carrageenan
[8] = 5.0 mg/kg, 3 h after carrageenan
[9] = 5.0 mg/kg, 4 h after carrageenan
[10] = 10.0 mg/kg, 1 h after carrageenan
[11] = 10.0 mg/kg, 2 h after carrageenan
[12] = 10.0 mg/kg, 3 h after carrageenan
[13] = 10.0 mg/kg, 4 h after carrageenan
[14] = Homo sapiens, MDA-MB-231, 24 h, 24 h
[15] = Homo sapiens, MDA-MB-231, 48 h, 48 h
[16] = Homo sapiens, MDA-MB-231, 72 h, 72 h

Row | Structure (SMILES) | Rat Paw Thickness [1, 2] | Rat Paw Thickness [1, 3] | Rat Paw Thickness [1, 4] | Rat Paw Thickness [1, 5] | Rat Paw Thickness [1, 6] | Rat Paw Thickness [1, 7] | Rat Paw Thickness [1, 8] | Rat Paw Thickness [1, 9] | Rat Paw Thickness [1, 10] | Rat Paw Thickness [1, 11] | Rat Paw Thickness [1, 12] | Rat Paw Thickness [1, 13] | inhibition in vivo at 2.5 mg/kg ([1]; 2.5 mg/kg, 1 h) | inhibition in vivo at 2.5 mg/kg ([1]; 2.5 mg/kg, 2 h) | inhibition in vivo at 2.5 mg/kg ([1]; 2.5 mg/kg, 3 h) | inhibition in vivo at 2.5 mg/kg ([1]; 2.5 mg/kg, 4 h) | inhibition in vivo at 5 mg/kg ([1]; 5.0 mg/kg, 1 h) | inhibition in vivo at 5 mg/kg ([1]; 5.0 mg/kg, 2 h) | inhibition in vivo at 5 mg/kg ([1]; 5.0 mg/kg, 3 h) | inhibition in vivo at 5 mg/kg ([1]; 5.0 mg/kg, 4 h) | other results
1 | COc1ccc2cc([C@H](C)C(=O)NC(=S)Nc3ccccc3)ccc2c1 [Compound 8, (S)-2-(6-methoxynaphthalen-2-yl)-N-(phenylcarbamothioyl)propanamide] | 5.67 ± 0.15 mm | 5.43 ± 0.15 mm | 5.07 ± 0.21 mm | 4.53 ± 0.50 mm | 6.0 ± 0.36 mm | 5.8 ± 0.44 mm | 5.40 ± 0.44 mm | 4.96 ± 0.35 mm | 6.0 ± 0.40 mm | 5.60 ± 0.44 mm | 5.27 ± 0.38 mm | 5.07 ± 0.21 mm | 19.7% | 21.2% | 26.1% | 44.4% | 23.8% | 24.2% | 31.5% | 44.9% | inhibition in vivo at 10 mg/kg ([1]; 10.0 mg/kg, 1 h): 29.3%; inhibition in vivo at 10 mg/kg ([1]; 10.0 mg/kg, 2 h): 39.4%; inhibition in vivo at 10 mg/kg ([1]; 10.0 mg/kg, 3 h): 45.9%; inhibition in vivo at 10 mg/kg ([1]; 10.0 mg/kg, 4 h): 46.7%; IC50 (MDA-MB-231; [14]): > 200 µM; IC50 (MDA-MB-231; [15]): > 200 µM; IC50 (MDA-MB-231; [16]): > 200 µM; Cytotoxic effect against HeLa cells (in words) (HeLa): strong cytotoxic effects; IC50 (HeLa; 72 h): 9.1 ± 2.5 µM; IC50 (HeLa; Homo sapiens, HeLa, 24 h): > 140 µM; IC50 (HeLa; Homo sapiens, HeLa, 48 h): 97.6 ± 10.9 µM; IC50 (HeLa; Homo sapiens, HeLa, 72 h): 9 ± 2 µM
2 | COc1ccc2cc([C@H](C)C(=O)NC(=S)Nc3ccc(C)cc3)ccc2c1 [Compound 9, (S)-2-(6-methoxynaphthalen-2-yl)-N-(p-tolylcarbamothioyl)propanamide] | 6.60 ± 0.10 mm | 6.33 ± 0.06 mm | 5.97 ± 0.06 mm | 5.70 ± 0.26 mm | 6.53 ± 0.32 mm | 6.23 ± 0.23 mm | 5.90 ± 0.17 mm | 5.50 ± 0.36 mm | 6.20 ± 0.17 mm | 5.83 ± 0.29 mm | 5.33 ± 0.15 mm | 5.05 ± 0.09 mm | 25.2% | 28.8% | 35.1% | 37.8% | 22.4% | 27.3% | 31.5% | 42.2% | inhibition in vivo at 10 mg/kg ([1]; 10.0 mg/kg, 1 h): 22.4%; inhibition in vivo at 10 mg/kg ([1]; 10.0 mg/kg, 2 h): 30.3%; inhibition in vivo at 10 mg/kg ([1]; 10.0 mg/kg, 3 h): 44.1%; inhibition in vivo at 10 mg/kg ([1]; 10.0 mg/kg, 4 h): 50%; IC50 (MDA-MB-231; [14]): > 200 µM; IC50 (MDA-MB-231; [15]): > 200 µM; IC50 (MDA-MB-231; [16]): 112 ± 18.1 µM; IC50 (HeLa; Homo sapiens, HeLa, 24 h): > 200 µM; IC50 (HeLa; Homo sapiens, HeLa, 48 h): > 200 µM; IC50 (HeLa; Homo sapiens, HeLa, 72 h): 120 ± 8.7 µM
3 | COc1ccc2cc([C@H](C)C(=O)NC(=S)Nc3ccccc3C)ccc2c1 [Compound 10, (S)-2-(6-methoxynaphthalen-2-yl)-N-(o-tolylcarbamothioyl)propanamide] | 6.17 ± 0.51 mm | 6.07 ± 0.83 mm | 5.77 ± 0.85 mm | 5.17 ± 0.75 mm | 6.47 ± 0.51 mm | 6.13 ± 0.47 mm | 5.77 ± 0.32 mm | 5.67 ± 0.40 mm | 6.20 ± 0.36 mm | 5.93 ± 0.31 mm | 5.70 ± 0.44 mm | 5.20 ± 0.44 mm | 18.4% | 13.6% | 13.5% | 33.3% | 29.3% | 36.4% | 44.1% | 37.8% | inhibition in vivo at 10 mg/kg ([1]; 10.0 mg/kg, 1 h): 19.7%; inhibition in vivo at 10 mg/kg ([1]; 10.0 mg/kg, 2 h): 22.7%; inhibition in vivo at 10 mg/kg ([1]; 10.0 mg/kg, 3 h): 20.7%; inhibition in vivo at 10 mg/kg ([1]; 10.0 mg/kg, 4 h): 35.6%; Cytotoxic effect against the MDA-MB-231 cell line (in words) (MDA-MB-231): moderate cytotoxic effect; IC50 (MDA-MB-231; 72 h): 42.2 ± 9.8 µM; IC50 (MDA-MB-231; [14]): 101 ± 11.2 µM; IC50 (MDA-MB-231; [15]): 70.5 ± 8.3 µM; IC50 (MDA-MB-231; [16]): 42 ± 9 µM; Cytotoxic effect against HeLa cells (in words) (HeLa): moderate cytotoxic effect; IC50 (HeLa; Homo sapiens, HeLa, 24 h): > 200 µM; IC50 (HeLa; Homo sapiens, HeLa, 48 h): 111 ± 8.3 µM; IC50 (HeLa; Homo sapiens, HeLa, 72 h): 85.3 ± 9.1 µM
4 | COc1ccc2cc([C@H](C)C(=O)NC(=S)Nc3ccccc3OC)ccc2c1 [Compound 11, (S)-2-(6-methoxynaphthalen-2-yl)-N-((2-methoxyphenyl)carbamothioyl)propanamide] | 7.30 ± 0.60 mm | 6.97 ± 0.67 mm | 6.67 ± 0.80 mm | 6.50 ± 0.80 mm | 6.97 ± 0.12 mm | 6.73 ± 0.15 mm | 6.27 ± 0.23 mm | 6.07 ± 0.15 mm | 7.33 ± 0.06 mm | 6.93 ± 0.12 mm | 6.63 ± 0.15 mm | 6.17 ± 0.31 mm | 22.4% | 28.8% | 31.5% | 26.7% | 22.4% | 24.2% | 35.1% | 33.3% | inhibition in vivo at 10 mg/kg ([1]; 10.0 mg/kg, 1 h): 10.2%; inhibition in vivo at 10 mg/kg ([1]; 10.0 mg/kg, 2 h): 18.2%; inhibition in vivo at 10 mg/kg ([1]; 10.0 mg/kg, 3 h): 18.9%; inhibition in vivo at 10 mg/kg ([1]; 10.0 mg/kg, 4 h): 31.1%; IC50 (MDA-MB-231; [14]): > 200 µM; IC50 (MDA-MB-231; [15]): > 200 µM; IC50 (MDA-MB-231; [16]): > 200 µM; IC50 (HeLa; Homo sapiens, HeLa, 24 h): > 200 µM; IC50 (HeLa; Homo sapiens, HeLa, 48 h): > 200 µM; IC50 (HeLa; Homo sapiens, HeLa, 72 h): > 200 µM

Reference: paper PMC10820527, “Synthesis, Characterization, and Investigation of Anti-Inflammatory and Cytotoxic Activities of Novel Thiourea Derivatives of Naproxen” (Pharmaceutics, 2023)
